EC50, IC50 and inhibition in vivo data for 16 molecules are collected here from ChEMBL document CHEMBL4033754, “Antiobesity Effect of a Short-Length Peptide YY Analogue after Continuous Administration in Mice” (ACS Med Chem Lett, 2017).

Each structure is given as a SMILES string. Where a SMILES comes first, the peptide text is derived from it. [ ]: non-standard residue; d: D form. The star is where a group is joined. ξ: configuration not given here. Cha = N[C@@H](CC1CCCCC1)C(=O)O; ξCha = NC(CC1CCCCC1)C(=O)O; Isobutyryl = CC(C)C(=O)*; Aib = CC(C)(N)C(=O)O; Bz = O=C(c1ccccc1)*; ξAbu = CCC(N)C(=O)O; Sar = CNCC(=O)O

The target in assay [1] is T1, Neuropeptide Y receptor type 2 (Homo sapiens, UniProt P49146).
T1 sequence (P49146 whole entry): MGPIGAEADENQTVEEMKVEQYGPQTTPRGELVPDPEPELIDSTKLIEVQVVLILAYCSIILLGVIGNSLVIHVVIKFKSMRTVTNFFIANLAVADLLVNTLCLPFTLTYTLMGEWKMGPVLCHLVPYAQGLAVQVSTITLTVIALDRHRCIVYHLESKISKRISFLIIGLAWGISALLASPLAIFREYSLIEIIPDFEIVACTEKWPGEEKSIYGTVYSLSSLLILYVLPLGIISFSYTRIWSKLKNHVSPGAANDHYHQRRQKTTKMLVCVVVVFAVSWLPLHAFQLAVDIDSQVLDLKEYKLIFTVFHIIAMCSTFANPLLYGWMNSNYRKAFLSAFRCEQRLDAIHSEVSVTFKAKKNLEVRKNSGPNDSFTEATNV
Description: Agonist activity at human Y2R expressed in CHO cell membranes assessed as [35S]GTPgammaS binding after 120 mins by liquid scintillation method. The class given is functional.

Assay [2] addresses T1, Neuropeptide Y receptor type 2. The assay is described as follows: Displacement of [125I]-PYY from human Y2R expressed in CHO cell membranes after 60 mins by liquid scintillation method. On the technique in general: In a radioligand displacement assay an active substance lowers the binding of a labelled ligand.
Assay [3] relates to Mus musculus. The assay is described as follows: Antiobesity activity in lean C57BL/6J mouse assessed as inhibition of food intake at 1 mg/kg administered via subcutaneous osmotic pumps for 3 continuous days relative to control. The note with it: sc.

Take `CCC(NC(=O)[C@H](CCCNC(=N)N)NC(=O)[C@H](CC(C)C)NC(=O)[C@H](CO)NC(=O)[C@H](C)N)C(=O)NC(CC1CCCCC1)C(=O)NC(CC1CCCCC1)C(=O)N[C@@H](CC(N)=O)C(=O)N[C@@H](CC(C)C)C(=O)NC(C)(C)C(=O)N[C@H](C(=O)N[C@@H](CCCNC(=N)N)C(=O)N[C@@H](CCC(N)=O)C(=O)N[C@@H](CCCNC(=N)N)C(=O)NC(CC1CCCCC1)C(N)=O)[C@@H](C)O` (stereo partly specified) (H-ASLR[ξAbu][ξCha][ξCha]NL[Aib]TRQR[ξCha]-NH2): the EC50 (as a rule, the concentration needed to bring the measured effect to its halfway point) in assay [1] was 2.5 nM. In addition, the IC50 (in general, the concentration at which inhibition is half-maximal) in assay [2] came to 2.7 nM.
On the same counts, the results for `CCC(NC(=O)[C@H](CCCNC(=N)N)NC(=O)C(C)C)C(=O)NC(CC1CCCCC1)C(=O)NC(CC1CCCCC1)C(=O)N[C@@H](CC(N)=O)C(=O)N[C@@H](CC(C)C)C(=O)NC(C)(C)C(=O)N[C@H](C(=O)N[C@@H](CCCNC(=N)N)C(=O)N[C@@H](CCC(N)=O)C(=O)N[C@@H](CCCNC(=N)N)C(=O)NC(CC1CCCCC1)C(N)=O)[C@@H](C)O` (stereo partly specified) (Isobutyryl-R[ξAbu][ξCha][ξCha]NL[Aib]TRQR[ξCha]-NH2) are 4.2 nM and 7.3 nM.
Turning to `CC(=O)N[C@@H](CO)C(=O)NCC(=O)N[C@@H](CCCNC(=N)N)C(=O)N[C@@H](Cc1cnc[nH]1)C(=O)NC(CC1CCCCC1)C(=O)NC(CC1CCCCC1)C(=O)N[C@@H](CC(N)=O)C(=O)N[C@@H](CC(C)C)C(=O)NC(C)(C)C(=O)N[C@H](C(=O)N[C@@H](CCCNC(=N)N)C(=O)N[C@@H](CCC(N)=O)C(=O)N[C@@H](CCCNC(=N)N)C(=O)NC(CC1CCCCC1)C(N)=O)[C@@H](C)O` (stereo partly specified) (Ac-SGRH[ξCha][ξCha]NL[Aib]TRQR[ξCha]-NH2), the concentration for a half-maximal effect (EC50) in assay [1] amounted to 1.3 nM. This molecule also showed an IC50 in assay [2] of 4.8 nM.
Turning to `CC(=O)N[C@@H](CO)C(=O)N1CCC[C@@H]1C(=O)N[C@@H](CCCNC(=N)N)C(=O)N[C@@H](Cc1cnc[nH]1)C(=O)NC(CC1CCCCC1)C(=O)NC(CC1CCCCC1)C(=O)N[C@@H](CC(N)=O)C(=O)N[C@@H](CC(C)C)C(=O)NC(C)(C)C(=O)N[C@H](C(=O)N[C@@H](CCCNC(=N)N)C(=O)N[C@@H](CCC(N)=O)C(=O)N[C@@H](CCCNC(=N)N)C(=O)NC(CC1CCCCC1)C(N)=O)[C@@H](C)O` (stereo partly specified), the EC50 in assay [1] came out at 0.61 nM. The molecule further came in with an IC50 in assay [2] of 1.5 nM. In addition, the inhibition in vivo (usually how much of the control response was suppressed) at 1 mg/kg in assay [3] worked out at 33%.
With `CCC(NC(=O)[C@H](CCCNC(=N)N)NC(=O)[C@@H](CC(C)C)NC(=O)[C@@H](CO)NC(C)=O)C(=O)NC(CC1CCCCC1)C(=O)NC(CC1CCCCC1)C(=O)N[C@@H](CC(N)=O)C(=O)N[C@@H](CC(C)C)C(=O)NC(C)(C)C(=O)N[C@H](C(=O)N[C@@H](CCCNC(=N)N)C(=O)N[C@@H](CCC(N)=O)C(=O)N[C@@H](CCCNC(=N)N)C(=O)NC(CC1CCCCC1)C(N)=O)[C@@H](C)O` (stereo partly specified), the EC50 in assay [1] amounted to 3.8 nM. Besides, the IC50 in assay [2] turned out to be 23 nM.
On to `CC(=O)N[C@@H](CO)C(=O)N(C)CC(=O)N[C@@H](CCCNC(=N)N)C(=O)N[C@@H](Cc1cnc[nH]1)C(=O)NC(CC1CCCCC1)C(=O)NC(CC1CCCCC1)C(=O)N[C@@H](CC(N)=O)C(=O)N[C@@H](CC(C)C)C(=O)NC(C)(C)C(=O)N[C@H](C(=O)N[C@@H](CCCNC(=N)N)C(=O)N[C@@H](CCC(N)=O)C(=O)N[C@@H](CCCNC(=N)N)C(=O)NC(CC1CCCCC1)C(N)=O)[C@@H](C)O` (stereo partly specified) (Ac-S[Sar]RH[ξCha][ξCha]NL[Aib]TRQR[ξCha]-NH2), for which, in assay [1], the EC50 was 1 nM. For the same molecule, the IC50 in assay [2] is 2.8 nM. Also, the inhibition in vivo at 1 mg/kg in assay [3] amounted to 13%.
Regarding `CCC(NC(=O)[C@H](CCCNC(=N)N)NC(=O)[C@H](CC(C)C)NC(C)=O)C(=O)NC(CC1CCCCC1)C(=O)NC(CC1CCCCC1)C(=O)N[C@@H](CC(N)=O)C(=O)N[C@@H](CC(C)C)C(=O)NC(C)(C)C(=O)N[C@H](C(=O)N[C@@H](CCCNC(=N)N)C(=O)N[C@@H](CCC(N)=O)C(=O)N[C@@H](CCCNC(=N)N)C(=O)NC(CC1CCCCC1)C(N)=O)[C@@H](C)O` (stereo partly specified) (Ac-LR[ξAbu][ξCha][ξCha]NL[Aib]TRQR[ξCha]-NH2), the 50% effective concentration (EC50) in assay [1] is 6.4 nM. The molecule further returned an IC50 in assay [2] of 17 nM.
The corresponding values for `CCC(NC(=O)[C@H](CCCNC(=N)N)NC(=O)[C@H](CC(C)C)NC(=O)[C@H](CO)NC(C)=O)C(=O)NC(CC1CCCCC1)C(=O)NC(CC1CCCCC1)C(=O)N[C@@H](CC(N)=O)C(=O)N[C@@H](CC(C)C)C(=O)NC(C)(C)C(=O)N[C@H](C(=O)N[C@@H](CCCNC(=N)N)C(=O)N[C@@H](CCC(N)=O)C(=O)N[C@@H](CCCNC(=N)N)C(=O)NC(CC1CCCCC1)C(N)=O)[C@@H](C)O` (stereo partly specified) are 3 nM and 8.8 nM.
In the case of `CC(=O)N[C@@H](CO)C(=O)N(C)[C@H](C)C(=O)N[C@@H](CCCNC(=N)N)C(=O)N[C@@H](Cc1cnc[nH]1)C(=O)NC(CC1CCCCC1)C(=O)NC(CC1CCCCC1)C(=O)N[C@@H](CC(N)=O)C(=O)N[C@@H](CC(C)C)C(=O)NC(C)(C)C(=O)N[C@H](C(=O)N[C@@H](CCCNC(=N)N)C(=O)N[C@@H](CCC(N)=O)C(=O)N[C@@H](CCCNC(=N)N)C(=O)NC(CC1CCCCC1)C(N)=O)[C@@H](C)O` (stereo partly specified), the EC50 in assay [1] turned out to be 0.59 nM. In addition, the IC50 in assay [2] was 2.8 nM. For the same molecule, the inhibition in vivo at 1 mg/kg in assay [3] is 28%.
On to `CC(=O)N[C@@H](CO)C(=O)N(C)[C@@H](C)C(=O)N[C@@H](CCCNC(=N)N)C(=O)N[C@@H](Cc1cnc[nH]1)C(=O)NC(CC1CCCCC1)C(=O)NC(CC1CCCCC1)C(=O)N[C@@H](CC(N)=O)C(=O)N[C@@H](CC(C)C)C(=O)NC(C)(C)C(=O)N[C@H](C(=O)N[C@@H](CCCNC(=N)N)C(=O)N[C@@H](CCC(N)=O)C(=O)N[C@@H](CCCNC(=N)N)C(=O)NC(CC1CCCCC1)C(N)=O)[C@@H](C)O` (stereo partly specified), for which the EC50 in assay [1] amounted to 1.2 nM. The same molecule gave an IC50 in assay [2] of 5.4 nM.
On the same counts, the results for `CCC(NC(=O)[C@H](CCCNC(=N)N)NC(=O)c1ccccc1)C(=O)NC(CC1CCCCC1)C(=O)NC(CC1CCCCC1)C(=O)N[C@@H](CC(N)=O)C(=O)N[C@@H](CC(C)C)C(=O)NC(C)(C)C(=O)N[C@H](C(=O)N[C@@H](CCCNC(=N)N)C(=O)N[C@@H](CCC(N)=O)C(=O)N[C@@H](CCCNC(=N)N)C(=O)NC(CC1CCCCC1)C(N)=O)[C@@H](C)O` (stereo partly specified) (Bz-R[ξAbu][ξCha][ξCha]NL[Aib]TRQR[ξCha]-NH2) are 4.6 nM and 5.7 nM.
On the same counts, the results for `CCC(NC(=O)[C@H](CCCNC(=N)N)NC(=O)[C@@H](CC(C)C)NC(=O)[C@H](CO)NC(C)=O)C(=O)NC(CC1CCCCC1)C(=O)NC(CC1CCCCC1)C(=O)N[C@@H](CC(N)=O)C(=O)N[C@@H](CC(C)C)C(=O)NC(C)(C)C(=O)N[C@H](C(=O)N[C@@H](CCCNC(=N)N)C(=O)N[C@@H](CCC(N)=O)C(=O)N[C@@H](CCCNC(=N)N)C(=O)NC(CC1CCCCC1)C(N)=O)[C@@H](C)O` (stereo partly specified) are 1.3 nM and 11 nM.
Take `CC(=O)N[C@@H](CO)C(=O)NC(C)(C)C(=O)N[C@@H](CCCNC(=N)N)C(=O)N[C@@H](Cc1cnc[nH]1)C(=O)NC(CC1CCCCC1)C(=O)NC(CC1CCCCC1)C(=O)N[C@@H](CC(N)=O)C(=O)N[C@@H](CC(C)C)C(=O)NC(C)(C)C(=O)N[C@H](C(=O)N[C@@H](CCCNC(=N)N)C(=O)N[C@@H](CCC(N)=O)C(=O)N[C@@H](CCCNC(=N)N)C(=O)NC(CC1CCCCC1)C(N)=O)[C@@H](C)O` (stereo partly specified) (Ac-S[Aib]RH[ξCha][ξCha]NL[Aib]TRQR[ξCha]-NH2): the EC50 in assay [1] is 0.55 nM. In assay [2], the IC50 is 2 nM. The inhibition in vivo at 1 mg/kg in assay [3] worked out at 51%.
Consider `CCC(NC(=O)[C@H](CCCNC(=N)N)NC(=O)[C@H](CC(C)C)NC(=O)[C@H](CO)NC(=O)[C@H](C)NC(C)=O)C(=O)NC(CC1CCCCC1)C(=O)NC(CC1CCCCC1)C(=O)N[C@@H](CC(N)=O)C(=O)N[C@@H](CC(C)C)C(=O)NC(C)(C)C(=O)N[C@H](C(=O)N[C@@H](CCCNC(=N)N)C(=O)N[C@@H](CCC(N)=O)C(=O)N[C@@H](CCCNC(=N)N)C(=O)NC(CC1CCCCC1)C(N)=O)[C@@H](C)O` (stereo partly specified) (Ac-ASLR[ξAbu][ξCha][ξCha]NL[Aib]TRQR[ξCha]-NH2), for which the EC50 in assay [1] stood at 4.6 nM. This molecule gave an IC50 in assay [2] of 6.8 nM.
Turning to `CCC(NC(=O)[C@H](CCCNC(=N)N)NC(=O)[C@H](CC(C)C)NC(=O)[C@@H](CO)NC(C)=O)C(=O)NC(CC1CCCCC1)C(=O)NC(CC1CCCCC1)C(=O)N[C@@H](CC(N)=O)C(=O)N[C@@H](CC(C)C)C(=O)NC(C)(C)C(=O)N[C@H](C(=O)N[C@@H](CCCNC(=N)N)C(=O)N[C@@H](CCC(N)=O)C(=O)N[C@@H](CCCNC(=N)N)C(=O)NC(CC1CCCCC1)C(N)=O)[C@@H](C)O` (stereo partly specified), in assay [1], the EC50 is 5.5 nM. The molecule further gave an IC50 in assay [2] of 12 nM.
Turning to `CC(C)C[C@H](NC(=O)[C@H](CO)NC(=O)[C@H](C)N)C(=O)N[C@@H](CCCNC(=N)N)C(=O)N[C@@H](Cc1cnc[nH]1)C(=O)N[C@@H](CC1CCCCC1)C(=O)N[C@@H](CC1CCCCC1)C(=O)N[C@@H](CC(N)=O)C(=O)N[C@@H](CC(C)C)C(=O)NC(C)(C)C(=O)N[C@H](C(=O)N[C@@H](CCCNC(=N)N)C(=O)N[C@@H](CCC(N)=O)C(=O)N[C@@H](CCCNC(=N)N)C(=O)N[C@@H](CC1CCCCC1)C(N)=O)[C@@H](C)O` (H-ASLRH[Cha][Cha]NL[Aib]TRQR[Cha]-NH2), in assay [1], the EC50 was determined as 0.74 nM. In assay [2], this molecule came in with an IC50 of 1.7 nM.
